The source of these data is US20260137703A1, “2-AMINO-PYRIDO[2,3-D]PYRIMIDIN-7(8H)-ONE AND 7-AMINO-1-PYRIMIDO[4,5-D]PYRIMIDIN-2(1 H)-ONE DERIVATIVES AS EGFR INHIBITORS FOR THE TREATMENT OF CANCER” (Cancer Research Technology Limited, priority 2022, published 2026).

Experiment [1] deals with T1, Phospho-EGFR (Tyr1068) in H1975 cells (Homo sapiens, UniProt P00533, L858R/T790M).
T1 construct: host or cells: H1975
Kind of experiment: HTRF pEGFR/total EGFR in H1975 cells. To be noted: ratio pEGFR/total EGFR, compound 3 hours. Type of experiment: cell-based. The procedure, abridged: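 H1975 cells (EGFR L858R/T790M) treated 3 h with compound in 0.1% DMSO, in duplicate, 24 h after plating. Lysates assayed by HTRF for pEGFR (Tyr1068) and total EGFR at 665/620 nm; values are pEGFR/total EGFR ratio as percent of 0 μM control.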
(In general: Time-resolved FRET reads energy transfer from a long-lived donor to a nearby acceptor.)

The target in experiment [2] is T2, Phospho-EGFR (Tyr1068) in A431 cells (Homo sapiens, UniProt P00533).
T2 construct: endogenous in cells; host or cells: A431
Description: HTRF pEGFR/total EGFR in A431 cells with EGF stimulation. Type of experiment: cell-based. To be noted: ratio pEGFR/total EGFR, compound 2.5 hours then 100 ng/ml EGF 30 mins. The procedure, abridged:
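A431 cells were plated at 20,000 per well, allowed 24 h to adhere, then given compound for 2.5 h (0.1% DMSO final). They were then stimulated with 100 ng/ml EGF for 30 min and lysed. HTRF measured Tyr1068-phospho and total EGFR at 665/620 nm, with pEGFR/total EGFR expressed as % of the 0 μM control.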

Experiment [3] deals with CtermHisTag-mEGFR Wild type (Homo sapiens, UniProt P00533). Kind of experiment: biochemical.
The target in experiment [4] is T3, Phospho-EGFR (Tyr1068) in H1975 C797S cells (CRISPR-edited EGFR C797S) (Homo sapiens, UniProt P00533, C797S/L858R/T790M).
T3 construct: host or cells: H1975 C797S (CRISPR-edited)
Description: HTRF pEGFR/total EGFR in H1975 C797S cells. Type of experiment: cell-based. Conditions: ratio pEGFR/total EGFR, compound 3 hours. The procedure, abridged: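 Adhered H1975 C797S cells got compound for 3 h in duplicate at 0.1% DMSO final, then were lysed 30 min at room temperature. HTRF kits quantified phospho-EGFR (Tyr1068) and total EGFR (665/620 nm); results are pEGFR/total EGFR ratio as percent of 0 μM control.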

One may read the IC50 as the concentration that gives 50% inhibition.

T3 sequence (P00533 25-1210 T790M/C797S/L858R): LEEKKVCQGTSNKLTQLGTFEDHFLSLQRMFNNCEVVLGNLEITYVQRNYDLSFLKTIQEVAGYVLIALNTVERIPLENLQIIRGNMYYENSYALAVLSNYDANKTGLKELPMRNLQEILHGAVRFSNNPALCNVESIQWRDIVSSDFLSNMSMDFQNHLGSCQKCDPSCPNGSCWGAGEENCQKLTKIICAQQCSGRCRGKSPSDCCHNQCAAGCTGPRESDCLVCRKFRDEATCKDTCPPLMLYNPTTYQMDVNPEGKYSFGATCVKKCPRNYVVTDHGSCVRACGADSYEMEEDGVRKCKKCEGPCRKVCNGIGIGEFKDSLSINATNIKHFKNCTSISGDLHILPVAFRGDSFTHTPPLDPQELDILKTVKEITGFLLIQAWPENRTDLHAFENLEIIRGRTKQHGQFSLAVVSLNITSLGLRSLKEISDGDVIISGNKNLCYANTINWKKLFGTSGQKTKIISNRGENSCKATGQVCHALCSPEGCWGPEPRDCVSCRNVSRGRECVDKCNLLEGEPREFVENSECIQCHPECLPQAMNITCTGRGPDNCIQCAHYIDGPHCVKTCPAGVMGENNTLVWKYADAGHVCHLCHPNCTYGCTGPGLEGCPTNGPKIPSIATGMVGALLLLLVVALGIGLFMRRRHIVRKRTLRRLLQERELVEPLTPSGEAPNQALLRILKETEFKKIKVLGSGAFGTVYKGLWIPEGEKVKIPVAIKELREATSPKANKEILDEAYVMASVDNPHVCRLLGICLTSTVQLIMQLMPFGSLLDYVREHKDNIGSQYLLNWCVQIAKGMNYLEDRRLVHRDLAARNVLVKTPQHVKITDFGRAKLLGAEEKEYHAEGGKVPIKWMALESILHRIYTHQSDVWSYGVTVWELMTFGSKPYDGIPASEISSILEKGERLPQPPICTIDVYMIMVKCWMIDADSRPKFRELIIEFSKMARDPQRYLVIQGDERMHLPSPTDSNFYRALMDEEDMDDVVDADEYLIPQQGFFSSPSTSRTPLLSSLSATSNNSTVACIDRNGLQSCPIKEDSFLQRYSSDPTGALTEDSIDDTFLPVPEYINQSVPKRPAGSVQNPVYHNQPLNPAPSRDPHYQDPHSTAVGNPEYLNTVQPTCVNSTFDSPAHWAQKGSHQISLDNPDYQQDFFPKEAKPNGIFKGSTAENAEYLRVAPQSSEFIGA
CtermHisTag-mEGFR Wild type, sequence (P00533 whole entry): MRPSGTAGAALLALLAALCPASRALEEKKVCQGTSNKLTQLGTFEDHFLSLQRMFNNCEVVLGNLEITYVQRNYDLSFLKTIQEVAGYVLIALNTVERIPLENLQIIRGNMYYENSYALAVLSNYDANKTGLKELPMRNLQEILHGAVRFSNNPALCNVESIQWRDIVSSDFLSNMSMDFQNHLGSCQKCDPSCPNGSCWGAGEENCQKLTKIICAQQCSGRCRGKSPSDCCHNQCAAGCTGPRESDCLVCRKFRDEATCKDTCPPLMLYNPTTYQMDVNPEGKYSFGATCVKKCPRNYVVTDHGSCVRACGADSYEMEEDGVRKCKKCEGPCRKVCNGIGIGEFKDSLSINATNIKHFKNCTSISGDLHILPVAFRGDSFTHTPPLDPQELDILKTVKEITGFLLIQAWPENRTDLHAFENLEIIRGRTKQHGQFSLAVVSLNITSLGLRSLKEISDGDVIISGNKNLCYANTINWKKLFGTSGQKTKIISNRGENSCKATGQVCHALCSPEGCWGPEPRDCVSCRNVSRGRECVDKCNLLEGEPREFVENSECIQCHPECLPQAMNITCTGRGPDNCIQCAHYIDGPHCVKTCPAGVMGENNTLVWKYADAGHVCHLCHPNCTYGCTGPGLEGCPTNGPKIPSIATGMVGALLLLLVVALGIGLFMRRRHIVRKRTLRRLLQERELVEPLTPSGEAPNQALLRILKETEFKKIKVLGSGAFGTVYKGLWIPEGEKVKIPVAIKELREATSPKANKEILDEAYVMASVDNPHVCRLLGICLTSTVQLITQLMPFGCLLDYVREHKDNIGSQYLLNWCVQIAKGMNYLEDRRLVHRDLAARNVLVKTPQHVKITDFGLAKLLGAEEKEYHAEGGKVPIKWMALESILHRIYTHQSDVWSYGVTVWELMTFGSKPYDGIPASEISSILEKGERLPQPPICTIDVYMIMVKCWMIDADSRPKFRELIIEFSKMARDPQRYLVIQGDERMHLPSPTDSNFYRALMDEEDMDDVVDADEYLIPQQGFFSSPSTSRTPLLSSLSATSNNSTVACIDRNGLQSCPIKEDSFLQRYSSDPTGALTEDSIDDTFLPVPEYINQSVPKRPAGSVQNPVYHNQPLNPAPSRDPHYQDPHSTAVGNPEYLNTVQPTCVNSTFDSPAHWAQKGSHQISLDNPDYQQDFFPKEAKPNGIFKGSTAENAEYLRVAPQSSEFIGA
T1 sequence (P00533 25-1210 T790M/L858R): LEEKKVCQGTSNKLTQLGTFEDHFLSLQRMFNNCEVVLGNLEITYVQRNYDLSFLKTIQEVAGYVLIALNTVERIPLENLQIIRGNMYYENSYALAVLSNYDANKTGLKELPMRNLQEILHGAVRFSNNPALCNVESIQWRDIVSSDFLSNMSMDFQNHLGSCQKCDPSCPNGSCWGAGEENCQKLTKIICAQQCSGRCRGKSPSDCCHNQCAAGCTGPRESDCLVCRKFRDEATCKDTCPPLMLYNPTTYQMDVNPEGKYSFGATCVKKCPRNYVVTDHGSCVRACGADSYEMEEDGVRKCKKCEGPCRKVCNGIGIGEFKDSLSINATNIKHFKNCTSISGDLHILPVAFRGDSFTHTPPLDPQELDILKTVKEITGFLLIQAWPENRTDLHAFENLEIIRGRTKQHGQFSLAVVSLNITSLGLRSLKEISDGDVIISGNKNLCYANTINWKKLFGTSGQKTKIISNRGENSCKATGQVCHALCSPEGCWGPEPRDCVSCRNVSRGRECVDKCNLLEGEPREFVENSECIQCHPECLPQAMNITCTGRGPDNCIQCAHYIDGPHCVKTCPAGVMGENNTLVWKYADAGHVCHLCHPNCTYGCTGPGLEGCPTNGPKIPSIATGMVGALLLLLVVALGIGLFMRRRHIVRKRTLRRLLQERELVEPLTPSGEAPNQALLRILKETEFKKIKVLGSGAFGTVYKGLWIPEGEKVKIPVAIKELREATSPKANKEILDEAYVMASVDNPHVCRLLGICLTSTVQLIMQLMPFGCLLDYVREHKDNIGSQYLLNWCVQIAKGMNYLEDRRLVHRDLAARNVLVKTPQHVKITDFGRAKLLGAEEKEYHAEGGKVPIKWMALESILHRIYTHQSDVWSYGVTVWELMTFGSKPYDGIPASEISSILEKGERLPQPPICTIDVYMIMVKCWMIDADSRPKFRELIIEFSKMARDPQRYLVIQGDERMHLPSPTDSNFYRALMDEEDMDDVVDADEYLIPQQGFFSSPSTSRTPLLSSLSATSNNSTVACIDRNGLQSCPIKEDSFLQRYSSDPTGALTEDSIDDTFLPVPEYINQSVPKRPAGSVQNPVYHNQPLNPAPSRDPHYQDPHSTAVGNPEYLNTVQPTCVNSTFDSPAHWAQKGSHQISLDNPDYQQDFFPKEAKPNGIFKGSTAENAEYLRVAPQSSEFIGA
T2 sequence (P00533 25-1210): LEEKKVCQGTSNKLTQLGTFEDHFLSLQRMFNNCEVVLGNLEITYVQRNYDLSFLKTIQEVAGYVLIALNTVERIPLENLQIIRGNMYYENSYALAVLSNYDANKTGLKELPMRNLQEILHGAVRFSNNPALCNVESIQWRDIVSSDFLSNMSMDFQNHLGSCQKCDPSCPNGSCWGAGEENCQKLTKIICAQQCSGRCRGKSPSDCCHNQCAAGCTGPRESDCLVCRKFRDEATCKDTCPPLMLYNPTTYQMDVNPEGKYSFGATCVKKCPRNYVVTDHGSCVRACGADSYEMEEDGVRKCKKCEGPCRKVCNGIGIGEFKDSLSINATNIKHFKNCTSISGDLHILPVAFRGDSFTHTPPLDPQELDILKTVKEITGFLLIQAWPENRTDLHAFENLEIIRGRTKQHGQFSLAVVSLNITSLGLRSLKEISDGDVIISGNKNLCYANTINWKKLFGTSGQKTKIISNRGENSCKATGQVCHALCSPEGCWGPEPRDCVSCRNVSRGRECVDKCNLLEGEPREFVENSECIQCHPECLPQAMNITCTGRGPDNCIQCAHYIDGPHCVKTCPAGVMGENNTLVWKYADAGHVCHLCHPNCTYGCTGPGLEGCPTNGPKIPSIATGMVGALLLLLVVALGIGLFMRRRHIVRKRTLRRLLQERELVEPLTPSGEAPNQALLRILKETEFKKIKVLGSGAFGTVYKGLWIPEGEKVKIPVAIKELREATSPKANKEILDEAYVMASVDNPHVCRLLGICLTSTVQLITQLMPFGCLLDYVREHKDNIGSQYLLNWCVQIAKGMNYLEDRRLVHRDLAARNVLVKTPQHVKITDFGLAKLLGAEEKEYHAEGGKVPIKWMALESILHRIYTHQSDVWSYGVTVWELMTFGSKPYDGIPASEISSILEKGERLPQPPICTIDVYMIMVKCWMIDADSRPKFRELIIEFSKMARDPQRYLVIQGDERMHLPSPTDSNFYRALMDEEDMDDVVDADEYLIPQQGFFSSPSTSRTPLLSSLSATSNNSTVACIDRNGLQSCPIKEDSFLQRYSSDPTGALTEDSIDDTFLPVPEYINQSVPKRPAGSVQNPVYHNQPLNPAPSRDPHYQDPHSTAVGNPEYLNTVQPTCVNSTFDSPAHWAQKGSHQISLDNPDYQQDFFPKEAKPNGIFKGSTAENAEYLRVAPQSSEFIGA

`C#Cc1cc(=O)n(C(C)C)c2nc(Nc3ccc(N4CCN(C)CC4)cc3)ncc12` [Example 76, 5-Ethynyl-8-isopropyl-2-{[4-(4-methylpiperazin-1-yl)phenyl]amino}pyrido[2,3-d]pyrimidin-7-one]: the half-maximal inhibitory concentration (IC50) was less than 0.5 µM in experiment [1], greater than 3 µM in experiment [2], less than 1 µM in experiment [3] and 0.5 to 1 µM in experiment [4].

In the case of `C#Cc1cc(=O)n2c3nc(ncc13)Nc1ccc(N3CCN(C)CC3)c(c1)N(C)C(=O)CCC2` [Example 225, 1^5-Ethynyl-4-methyl-3^4-(4-methylpiperazin-1-yl)-1^7,1^8-dihydro-2,4-diaza-1(2,8)-pyrido[2,3-d]pyrimidina-3(1,3)-benzenacyclooctaphane-1^7,5-dione], the IC50 in experiment [1] was 1 to 3 µM; in experiment [2], greater than 3 µM; in experiment [3], greater than 10 µM; in experiment [4] it was 1 to 3 µM.

With `C#Cc1cc(=O)n([C@H]2CC[C@@H](CO)CC2)c2nc(Nc3ccc(N(C)CCN(C)C)cc3)ncc12` [Example 80, 2-[(4-{[2-(Dimethylamino)ethyl](methyl)amino}phenyl)amino]-5-ethynyl-8-[(1s,4s)-4-(hydroxymethyl)cyclohexyl]pyrido[2,3-d]pyrimidin-7-one], the IC50 in experiment [1] was less than 0.5 µM; in experiment [2], 1 to 3 µM; in experiment [3], less than 1 µM; in experiment [4], 0.5 to 1 µM.

Consider `C#Cc1cc(=O)n2c3nc(ncc13)Nc1ccc(N3CCN(C)CC3)c(c1)OCCCCC2C` (stereo not shown) [Example 228, 1^5-Ethynyl-9-methyl-3^4-(4-methylpiperazin-1-yl)-1^7,1^8-dihydro-4-oxa-2-aza-1(2,8)-pyrido[2,3-d]pyrimidina-3(1,3)-benzenacyclononaphan-17-one], for which the IC50 in experiment [1] was less than 0.5 µM; in experiment [2], greater than 3 µM; in experiment [3] it was 1 to 10 µM; in experiment [4] it was less than 0.5 µM.

As to `C#Cc1cc(=O)n(-c2ccc(N)cc2)c2nc(Nc3ccccc3OC)ncc12` [Example 61, 8-(4-Aminophenyl)-5-ethynyl-2-((2-methoxyphenyl)amino)pyrido[2,3-d]pyrimidin-7(8H)-one], the 50% inhibitory concentration (IC50) was greater than 3 µM in experiment [1], greater than 3 µM in experiment [2], less than 1 µM in experiment [3] and greater than 3 µM in experiment [4].

With `C#Cc1cc(=O)n([C@H]2CC[C@@H](NC(=O)CC(=O)N(C)C)CC2)c2nc(Nc3ccc(N4CCN(C)CC4)cc3)ncc12` [Example 95, N,N-Dimethyl-N′-[(1s,4s)-4-(5-ethynyl-2-{[4-(4-methylpiperazin-1-yl)phenyl]amino}-7-oxopyrido[2,3-d]pyrimidin-8-yl)cyclohexyl]propanediamide], the IC50 in experiment [1] was less than 0.5 µM; in experiment [2], greater than 3 µM; in experiment [3], 1 to 10 µM; in experiment [4] it was less than 0.5 µM.

With `C#Cc1c(-c2ccccc2Cl)c(=O)n(C)c2nc(Nc3ccc(N4CCN(C)CC4)cc3OC)ncc12` [Example 127, 6-(2-chlorophenyl)-5-ethynyl-2-{[2-methoxy-4-(4-methylpiperazin-1-yl)phenyl]amino}-8-methylpyrido[2,3-d]pyrimidin-7-one], the IC50 was 0.5 to 1 µM in experiment [1], 0.5 to 1 µM in experiment [2], less than 1 µM in experiment [3] and 1 to 3 µM in experiment [4].

`C#Cc1cc(=O)n2c3nc(ncc13)Nc1ccc(N3CCN(C)CC3)c(c1)NCCCC2` [Example 198, 1^5-Ethynyl-3^4-(4-methylpiperazin-1-yl)-1^7, 1^8-dihydro-2,4-diaza-1(2,8)-pyrido[2,3-d]pyrimidina-3(1,3)-benzenacyclooctaphan-1^7-one]: the IC50 was 0.5 to 1 µM in experiment [1], greater than 3 µM in experiment [2], greater than 10 µM in experiment [3] and less than 0.5 µM in experiment [4].

For `C#Cc1cc(=O)n2c3nc(ncc13)Nc1ccc(N3CCN(C)CC3)c(c1)CNC(=O)CCC2` [Example 237, 1^5-Ethynyl-3^4-(4-methylpiperazin-1-yl)-1^7,1^8-dihydro-2,5-diaza-1(2,8)-pyrido[2,3-d]pyrimidina-3(1,3)-benzenacyclononaphane-1^7,6-dione], the IC50 was less than 0.5 µM in experiment [1], greater than 3 µM in experiment [2], less than 1 µM in experiment [3] and 0.5 to 1 µM in experiment [4].

As to `C#Cc1cc(=O)n2c3nc(ncc13)Nc1ccc(N3CCN(C)CC3)c(c1)S(=O)(=O)NCCC2` [Example 234, 1^5-Ethynyl-3^4-(4-methylpiperazin-1-yl)-1^7,1^8-dihydro-4-thia-2,5-diaza-1(2,8)-pyrido[2,3-d]pyrimidina-3(1,3)-benzenacyclooctaphan-1^7-one 4,4-dioxide], the IC50 is 1 to 3 µM in experiment [1], greater than 3 µM in experiment [2], less than 1 µM in experiment [3] and 1 to 3 µM in experiment [4].

With `C#Cc1c(C)c(=O)n(Cc2cnoc2)c2nc(Nc3ccc(N4CCN(C)CC4)cc3)ncc12` [Example 175, 5-Ethynyl-6-methyl-2-{[4-(4-methylpiperazin-1-yl)phenyl]aminol}-8-(1,2-oxazol-4-ylmethyl)pyrido[2,3-d]pyrimidin-7-one], the IC50 is greater than 3 µM in experiment [1], greater than 3 µM in experiment [2], greater than 10 µM in experiment [3] and greater than 3 µM in experiment [4].

As for `C=Cc1cc(=O)n(-c2cccc(OC)c2)c2nc(Nc3ccccc3OC)ncc12` [Example 156, 8-(3-Methoxyphenyl)-2-((2-methoxyphenyl)amino)-5-vinylpyrido[2,3-d]pyrimidin-7(8H)-one], the IC50 in experiment [1] is greater than 3 µM; in experiment [2], greater than 3 µM; in experiment [3] it was greater than 10 µM; in experiment [4] it was greater than 3 µM.

As to `C#Cc1cc(=O)n(C[C@@H]2CCC(=O)N2)c2nc(Nc3ccc(N4CCN(C)CC4)cc3)ncc12` [Example 71, (S)-5-Ethynyl-2-((4-(4-methylpiperazin-1-yl)phenyl)amino)-8-((5-oxopyrrolidin-2-yl)methyl)pyrido[2,3-d]pyrimidin-7(8H)-one], the IC50 in experiment [1] is greater than 3 µM; in experiment [2], greater than 3 µM; in experiment [3], greater than 10 µM; in experiment [4], greater than 3 µM.

On to `C#Cc1c(C)c(=O)n([C@H]2CC[C@@H](NC(C)=O)CC2)c2nc(Nc3ccc(N4CCN(C)CC4)cc3)ncc12` [Example 103, N-[(1s,4s)-4-(5-ethynyl-6-methyl-2-{[4-(4-methylpiperazin-1-yl)phenyl]amino}-7-oxopyrido[2,3-d]pyrimidin-8-yl)cyclohexyl]acetamide], for which the IC50 in experiment [1] is 1 to 3 µM; in experiment [2], 1 to 3 µM; in experiment [3], 1 to 10 µM; in experiment [4] it was 1 to 3 µM.

Regarding `C#Cc1cc(=O)[nH]c2nc(Nc3ccccc3OC)ncc12` [Example 120, 5-ethynyl-2-((2-methoxyphenyl)amino)pyrido[2,3-d]pyrimidin-7(8H)-one], the IC50 in experiment [1] is greater than 3 µM; in experiment [2], greater than 3 µM; in experiment [3], 1 to 10 µM; in experiment [4], greater than 3 µM.

Consider `C#Cc1c(-c2ccccc2Cl)c(=O)n(C)c2nc(Nc3ccc(OCCN(C)C)cc3)ncc12` [Example 129, 6-(2-chlorophenyl)-2-({4-[2-(dimethylamino)ethoxy]phenyl}amino)-5-ethynyl-8-methylpyrido[2,3-d]pyrimidin-7-one], for which the IC50 in experiment [1] is 0.5 to 1 µM; in experiment [2], 0.5 to 1 µM; in experiment [3], less than 1 µM; in experiment [4] it was greater than 3 µM.

On to `C#Cc1cc(=O)n2c3nc(ncc13)Nc1ccc(N3CCN(C)CC3)c(c1)OCCOCC2` [Example 232, 1^5-Ethynyl-3^4-(4-Methylpiperazin-1-yl)-1^7,1^8-dihydro-4,7-dioxa-2-aza-1(2,8)-pyrido[2,3-d]pyrimidina-3(1,3)-benzenacyclononaphan-1^7-one], for which the IC50 in experiment [1] was less than 0.5 µM; in experiment [2], greater than 3 µM; in experiment [3] it was less than 1 µM; in experiment [4] it was less than 0.5 µM.

`C#Cc1cc(=O)n([C@H]2CC[C@@H](NC(=O)C(C)C)CC2)c2nc(Nc3ccc(N4CCN(C)CC4)cc3)ncc12` [Example 82, 2-Methyl-N-[(1s,4s)-4-(5-ethynyl-2-{[4-(4-methylpiperazin-1-yl)phenyl]amino}-7-oxopyrido[2,3-d]pyrimidin-8-yl)cyclohexyl]propanamide]: the IC50 in experiment [1] was less than 0.5 µM; in experiment [2] it was greater than 3 µM; in experiment [3], less than 1 µM; in experiment [4] it was less than 0.5 µM.

Regarding `C#Cc1cc(=O)n([C@H]2CC[C@@H](NC(=O)Cc3cn[nH]c3)CC2)c2nc(Nc3ccc(N4CCN(C)CC4)cc3)ncc12` [Example 91, 2-(1H-Pyrazol-4-yl)-N-[(1s,4s)-4-(5-ethynyl-2-{[4-(4-methylpiperazin-1-yl)phenyl]amino}-7-oxopyrido[2,3-d]pyrimidin-8-yl)cyclohexyl]acetamide], the IC50 in experiment [1] was 0.5 to 1 µM; in experiment [2], greater than 3 µM; in experiment [3] it was less than 1 µM; in experiment [4] it was 1 to 3 µM.
